Measured values from patent US20240092770A1, “Heterocycle RMB39 Modulators” (Recursion Pharmaceuticals, Inc., priority 2022, published 2024).

target: RBM39 and the DCAF15 complex (RBM39-Flag / His-DCAF15-DDA1-DDB1) (Homo sapiens (Human), UniProt Q14498+Q66K64); assay: DCAF15 RBM39 complex formation TR-FRET assay; assay type: binding; details: RBM39(R150-D331) 3xFlag 50 nM, His-DCAF15-DDA1-DDB1 10 nM, 60 min room temperature
Procedure: A TR-FRET assay was used to assess the effect of compounds disclosed herein on the interaction between RBM39 and the DCAF15 complex. Test compounds were dissolved to form a 10 mM DMSO stock solution. A 45 μL aliquot of the stock solution was transferred to a 384 pp-plate, and a threefold, 8-point dilution was performed via transferring 15 μL compound solution into 30 μL of DMSO. The plates were then spun at room temperature at 1,000 RPM for 1 minute.
A 30 nL aliquot of the diluted compound was transferred to a 384 well plate, which was incubated at room temperature for 15 minutes. Next, Solutions 1, 2, and 3 were prepared as described in the below tables. A 5 μL aliquot of Solution 2 was added to each well, followed by 5 μL of Solution 3 to start the reaction. The final volume of each well was 10 μL. The plates were incubated at room temperature for 60 minutes, and then read.
Next, an RBM39 (R150-D331) 3× Flag used in TR-FRET assay was prepared:
Recombinant RBM39 protein is composed of the R1R2 of RBM39 (aa 150 to 331; UniProt: Q14498). The coding sequence was sub-cloned into pGEX4T-1-RBM39-flag vector, expressed as a GST-fusion protein with N-terminal TEV protease cleavage site. A 3× Flag tag was added to the C-terminal of R1R2 used in a FRET assay.

EC50 [nM] | Structure (SMILES)
1030 | Cc1ccc(NS(=O)(=O)c2nccs2)c2[nH]cc(C#N)c12 [Compound 2]
75.7 | Cc1sc(S(=O)(=O)Nc2ccc(C)c3c(C#N)c[nH]c23)nc1C#N [Compound 10]
384 | Cc1ccc(NS(=O)(=O)c2nc(C(F)(F)F)cs2)c2[nH]cc(C#N)c12 [Compound 12, N-(3-cyano-4-methyl-1H-indol-7-yl)-4-(trifluoromethyl)-1,3-thiazole-2-sulfonamide]
298 | Cc1ccc(NS(=O)(=O)c2nc(Br)cs2)c2[nH]cc(C#N)c12 [Compound 13]
269 | Cc1ccc(NS(=O)(=O)c2cnc(C(F)(F)F)s2)c2[nH]cc(C#N)c12 [Compound 24]
2800 | N#Cc1c[nH]c2c(NS(=O)(=O)c3nccs3)cccc12 [Compound 27]
136 | Cc1ccc(NS(=O)(=O)c2ncc(-c3cccnc3)s2)c2[nH]cc(C#N)c12 [Compound 32]
427 | Cc1ccc(NS(=O)(=O)c2ncc(-c3ccccn3)s2)c2[nH]cc(C#N)c12 [Compound 37]
275 | Cc1ccc(NS(=O)(=O)c2cnc(Br)s2)c2[nH]cc(C#N)c12 [Compound 40]
> 30000 | Cc1noc(C)c1S(=O)(=O)Nc1ccc(C)c2c(C#N)c[nH]c12 [Compound 43]
164 | Cc1ncc(S(=O)(=O)Nc2cccc3c(C#N)c[nH]c23)s1 [Compound 51]
302 | Cc1sc(S(=O)(=O)Nc2cccc3c(C#N)c[nH]c23)nc1Br [Compound 55]
> 30000 | Cc1ccc(NS(=O)(=O)c2nc(C(=O)O)cs2)c2[nH]cc(C#N)c12 [Compound 57]
802 | Cc1ccc(NS(=O)(=O)c2nc(C(=O)N(C)C)cs2)c2[nH]cc(C#N)c12 [Compound 59]
1360 | Cc1ccc(NS(=O)(=O)c2nc(C(=O)N3CCCC3)cs2)c2[nH]cc(C#N)c12 [Compound 60]
1790 | Cc1ccc(NS(=O)(=O)c2nc(C(=O)N3CCOCC3)cs2)c2[nH]cc(C#N)c12 [Compound 61]
1080 | N#Cc1c[nH]c2c(NS(=O)(=O)c3nc(Br)cs3)cccc12 [Compound 65]
708 | Cc1ccc(NS(=O)(=O)c2ncc(-c3ccnnc3)s2)c2[nH]cc(C#N)c12 [Compound 68]

EC50 [nM] | Structure (SMILES)
421 | Cc1ccc(NS(=O)(=O)c2ncc(-c3cc[nH]n3)s2)c2[nH]cc(C#N)c12 [Compound 69]
432 | Cc1ccc(NS(=O)(=O)c2nc(C(N)=O)cs2)c2[nH]cc(C#N)c12 [Compound 72]
738 | CCN(CC)C(=O)c1csc(S(=O)(=O)Nc2ccc(C)c3c(C#N)c[nH]c23)n1 [Compound 73]
1450 | Cc1ccc(NS(=O)(=O)c2nc(C(=O)NCCO)cs2)c2[nH]cc(C#N)c12 [Compound 74]
2180 | COCCNC(=O)c1csc(S(=O)(=O)Nc2ccc(C)c3c(C#N)c[nH]c23)n1 [Compound 75]
3250 | Cc1ccc(NS(=O)(=O)c2nc(C(=O)N3CCNCC3)cs2)c2[nH]cc(C#N)c12 [Compound 78]
9710 | Cc1ccc(NS(=O)(=O)c2nc(C(=O)N3CCN(C)CC3)cs2)c2[nH]cc(C#N)c12 [Compound 79]
1440 | Cc1nc(S(=O)(=O)Nc2ccc(C)c3c(C#N)c[nH]c23)c(C)s1 [Compound 82]
105 | Cc1ccc(NS(=O)(=O)c2onc(C3CC3)c2Cl)c2[nH]cc(C#N)c12 [Compound 83]
2070 | Cc1nocc1S(=O)(=O)Nc1ccc(C)c2c(C#N)c[nH]c12 [Compound 86]
277 | N#Cc1c[nH]c2c(NS(=O)(=O)c3cc(C4CC4)no3)cccc12 [Compound 87]
389 | COc1ncc(S(=O)(=O)Nc2cccc3c(C#N)c[nH]c23)s1 [Compound 90]
76.6 | CCc1ncc(S(=O)(=O)Nc2cccc3c(C#N)c[nH]c23)s1 [Compound 91]
196 | Cc1ncc(S(=O)(=O)Nc2ccc(C)c3c(C#N)c[nH]c23)o1 [Compound 98]
364 | Cc1ccc(NS(=O)(=O)c2cnc(C(C)(C)C)o2)c2[nH]cc(C#N)c12 [Compound 100]
299 | N#Cc1c[nH]c2c(NS(=O)(=O)c3csc(C(F)F)n3)cccc12 [Compound 105]
325 | N#Cc1c[nH]c2c(NS(=O)(=O)c3cnc(C4CC4)o3)cccc12 [Compound 107, N-(3-cyano-1H-indol-7-yl)-2-cyclopropyl-1,3-oxazole-5-sulfonamide]

Continued, compound first:

Structure (SMILES) | EC50 [nM]
Cc1ccc(NS(=O)(=O)c2ncc(Cl)s2)c2[nH]cc(C#N)c12 [Compound 3] | 429
Cc1ccc(NS(=O)(=O)c2cnc(Cl)s2)c2[nH]cc(C#N)c12 [Compound 7] | 106
CCc1nc(S(=O)(=O)Nc2ccc(C)c3c(C#N)c[nH]c23)c[nH]1 [Compound 8, N-(3-cyano-4-methyl-1H-indol-7-yl)-2-ethyl-1H-imidazole-4-sulfonamide] | 787
Cc1cnc(S(=O)(=O)Nc2ccc(C)c3c(C#N)c[nH]c23)s1 [Compound 9] | 436
Cc1sc(S(=O)(=O)Nc2ccc(C)c3c(C#N)c[nH]c23)nc1Br [Compound 11] | 108
N#Cc1c[nH]c2c(NS(=O)(=O)c3cnc(C(F)(F)F)s3)cccc12 [Compound 34] | 301
Cc1ccc(NS(=O)(=O)c2ncc(-c3ccncc3)s2)c2[nH]cc(C#N)c12 [Compound 36] | 354
CCc1nc(S(=O)(=O)Nc2cccc3c(C#N)c[nH]c23)c[nH]1 [Compound 38] | 4190
Cc1ccc(NS(=O)(=O)c2c[nH]c(C(C)C)n2)c2[nH]cc(C#N)c12 [Compound 39] | 520
Cc1ccc(NS(=O)(=O)c2nc(CCO)cs2)c2[nH]cc(C#N)c12 [Compound 41] | 363
Cc1ccc(NS(=O)(=O)c2cncs2)c2[nH]cc(C#N)c12 [Compound 42] | 55.2
Cc1ccc(NS(=O)(=O)c2ncc(CCO)s2)c2[nH]cc(C#N)c12 [Compound 44] | 904
Cc1ccc(NS(=O)(=O)c2ncc(-c3ccncn3)s2)c2[nH]cc(C#N)c12 [Compound 45] | 394
Cc1ccc(NS(=O)(=O)c2csc(C(F)(F)F)n2)c2[nH]cc(C#N)c12 [Compound 47] | 97
Cc1ncc(S(=O)(=O)Nc2ccc(C)c3c(C#N)c[nH]c23)s1 [Compound 48] | 125
N#Cc1c[nH]c2c(NS(=O)(=O)c3csc(C(F)(F)F)n3)cccc12 [Compound 49] | 190
N#Cc1c[nH]c2c(NS(=O)(=O)c3cncs3)cccc12 [Compound 50, N-(3-cyano-1H-indol-7-yl)thiazole-5-sulfonamide] | 966
CNC(=O)c1csc(S(=O)(=O)Nc2ccc(C)c3c(C#N)c[nH]c23)n1 [Compound 58] | 1080
Cc1ccc(NS(=O)(=O)c2cscn2)c2[nH]cc(C#N)c12 [Compound 63] | 1170
N#Cc1c[nH]c2c(NS(=O)(=O)c3cscn3)cccc12 [Compound 64] | 3440

Structure (SMILES) | EC50 [nM]
Cc1ccc(NS(=O)(=O)c2ncc(-c3cncnc3)s2)c2[nH]cc(C#N)c12 [Compound 67] | 520
Cc1ccc(NS(=O)(=O)c2ncc(-c3cn[nH]c3)s2)c2[nH]cc(C#N)c12 [Compound 70] | 338
Cc1ccc(NS(=O)(=O)c2ncc(-c3cocn3)s2)c2[nH]cc(C#N)c12 [Compound 71] | 532
Cc1ccc(NS(=O)(=O)c2nc(C(=O)N3CCC(O)C3)cs2)c2[nH]cc(C#N)c12 (centres unmarked) [Compound 76] | 3320
Cc1ccc(NS(=O)(=O)c2nc(C(=O)N3CCCCC3)cs2)c2[nH]cc(C#N)c12 [Compound 77] | 828
Cc1ccc(NS(=O)(=O)c2cc(C3CC3)no2)c2[nH]cc(C#N)c12 [Compound 81] | 55.6
COc1ncc(S(=O)(=O)Nc2ccc(C)c3c(C#N)c[nH]c23)s1 [Compound 84] | 175
CCc1ncc(S(=O)(=O)Nc2ccc(C)c3c(C#N)c[nH]c23)s1 [Compound 85] | 95.9
N#Cc1c[nH]c2c(NS(=O)(=O)c3onc(C4CC4)c3Cl)cccc12 [Compound 89] | 174
Cc1scnc1S(=O)(=O)Nc1ccc(C)c2c(C#N)c[nH]c12 [Compound 93] | 1520
Cc1ccc(NS(=O)(=O)c2cc(C(C)(C)C)no2)c2[nH]cc(C#N)c12 [Compound 94] | 45.2
Cc1ccc(NS(=O)(=O)c2csc(C(F)F)n2)c2[nH]cc(C#N)c12 [Compound 95] | 104
Cc1ccc(NS(=O)(=O)c2cnc(C3CC3)o2)c2[nH]cc(C#N)c12 [Compound 97] | 105
Cc1nc(Br)sc1S(=O)(=O)Nc1ccc(C)c2c(C#N)c[nH]c12 [Compound 99] | 518
O=S(=O)(Nc1cccc2cn[nH]c12)c1nccs1 [Compound 102] | > 30000
CC(C)(C)c1cc(S(=O)(=O)Nc2cccc3c(C#N)c[nH]c23)on1 [Compound 104] | 128
Cc1ncc(S(=O)(=O)Nc2cccc3c(C#N)c[nH]c23)o1 [Compound 108] | 1970
Cc1nc(Br)sc1S(=O)(=O)Nc1cccc2c(C#N)c[nH]c12 [Compound 109] | 2070
CC(C)(C)c1ncc(S(=O)(=O)Nc2cccc3c(C#N)c[nH]c23)o1 [Compound 110] | 729
